Reference: patent US6355799B1, “Substituted benzene compounds, process for their preparation, and herbicidal and defoliant compositions containing them” (ISK Americas Incorporated, priority 1997, dated 2002)

How the values were obtained:
Format in all cases: in vivo
[1] = system: redroot pigweed (Amaranthus retroflexus, AMARE); experiment: Pre-emerge test, greenhouse herbicide activity screening; conditions: rated 14 days after application, 0 = no damage, 100 = complete death
Outline: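 Rating: 0–100 visual injury, 14 DAA. Application: acetone, 187 l/ha, 15–1000 g ai/ha, flat-fan track sprayer with nozzle 40–45 cm above soil or canopy. Post-emerge runs used 0.25% v/v surfactant on 2–3 leaf plants.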

[2] = system: velvetleaf (Abutilon theophrasti, ABUTH); experiment: as above; conditions: rated 14 days after application, 0 = no damage, 100 = complete death
Outline: (§1)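 Sandy loam pots; pre-emerge: sown 1 d pre-spray, surface-watered after, then bottom-watered. Post-emerge: sown 8–21 d before, 2–3 leaf stage, + 0.25% v/v NIS, bottom-watered. Acetone, 187 l/ha track spray, 15–1000 g ai/ha. 0–100 injury score, day 14.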

[3] = system: common ragweed (Ambrosia artemisizfolia L., AMBEL); experiment: as above; conditions: rated 14 days after application, 0 = no damage, 100 = complete death
Outline: as §1

[4] = system: johnsongrass (Sorghum halepense, SORHA); experiment: as above; conditions: rated 14 days after application, 0 = no damage, 100 = complete death
Outline: as §1

[5] = system: ivyleaf morningglory (Ipomoea hederacea, IPOHE); experiment: as above; conditions: rated 14 days after application, 0 = no damage, 100 = complete death
Outline: as §1

[6] = system: green foxtail (Setaria viridis, SETVI); experiment: as above; conditions: rated 14 days after application, 0 = no damage, 100 = complete death
Outline: as §1

[7] = system: large crabgrass (Digitaria sanguinalis, DIGSA); experiment: as above; conditions: rated 14 days after application, 0 = no damage, 100 = complete death
Outline: as §1

[8] = system: sicklepod (Cassia obtusifolia, CASOB); experiment: as above; conditions: rated 14 days after application, 0 = no damage, 100 = complete death
Outline: as §1

[9] = system: barnyardgrass (Echinochloa crus-galli, ECHCG); experiment: as above; conditions: rated 14 days after application, 0 = no damage, 100 = complete death
Outline: as §1

[10] = system: lambsquarters (Chenopodium album, CHEAL); experiment: as above; conditions: rated 14 days after application, 0 = no damage, 100 = complete death
Outline: as §1

[11] = system: velvetleaf (Abutilon theophrasti, ABUTH); experiment: Post-emerge test, greenhouse herbicide activity screening; conditions: post-emerge, 14 days after application, rating scale 0-100
Outline: (§2)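 Herbicidal damage is scored 0 (none) to 100 (complete plant death) two weeks after a simulated field spray. Rates span 15–1000 g ai/ha, delivered in acetone at 187 l/ha. For post-emergence treatments, plants have 2–3 leaves and the spray carries 0.25% v/v non-ionic surfactant.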

[12] = system: common ragweed (Ambrosia artemisizfolia L., AMBEL); experiment: as above; conditions: post-emerge, 14 days after application, rating scale 0-100
Outline: as §2

[13] = system: johnsongrass (Sorghum halepense, SORHA); experiment: as above; conditions: post-emerge, 14 days after application, rating scale 0-100
Outline: as §2

[14] = system: ivyleaf morningglory (Ipomoea hederacea, IPOHE); experiment: as above; conditions: post-emerge, 14 days after application, rating scale 0-100
Outline: as §2

[15] = system: green foxtail (Setaria viridis, SETVI); experiment: as above; conditions: post-emerge, 14 days after application, rating scale 0-100
Outline: as §2

[16] = system: large crabgrass (Digitaria sanguinalis, DIGSA); experiment: as above; conditions: post-emerge, 14 days after application, rating scale 0-100
Outline: as §2

[17] = system: redroot pigweed (Amaranthus retroflexus, AMARE); experiment: as above; conditions: post-emerge, 14 days after application, rating scale 0-100
Outline: as §2

[18] = system: sicklepod (Cassia obtusifolia, CASOB); experiment: as above; conditions: post-emerge, 14 days after application, rating scale 0-100
Outline: as §2

[19] = system: barnyardgrass (Echinochloa crus-galli, ECHCG); experiment: as above; conditions: post-emerge, 14 days after application, rating scale 0-100
Outline: as §2

[20] = system: lambsquarters (Chenopodium album, CHEAL); experiment: as above; conditions: post-emerge, 14 days after application, rating scale 0-100
Outline: as §2

[21] = system: field corn (Zea mays L., var. Dekalb 535, CORN); experiment: Post-emerge test, crop safety; conditions: post-emerge, 14 days after application, rating scale 0-100
Outline: as §1

[22] = system: upland rice (Oryza sp., var. Tebonnet, RICE); experiment: Post-emerge test, crop safety; conditions: post-emerge, 14 days after application, rating scale 0-100
Outline: as §1

[23] = system: field corn (Zea mays L., var. Dekalb 535, CORN); experiment: Pre-emerge test, crop safety; conditions: rated 14 days after application, 0 = no damage, 100 = complete death
Outline: (§3)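 Plants grown in 10 cm pots of sandy loam mix received acetone-dissolved compounds through a moving flat-fan nozzle. Doses ranged from 15 to 1000 g ai/ha. Pre-emerge pots were seeded one day earlier, post-emerge pots 8–21 days earlier. Fourteen days on, each pot was graded 0–100 for damage.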

[24] = system: upland rice (Oryza sp., var. Tebonnet, RICE); experiment: Pre-emerge test, crop safety; conditions: rated 14 days after application, 0 = no damage, 100 = complete death
Outline: as §3

## COc1c(Cl)cc(F)c(-n2c(=O)cc(C(F)(F)F)n(C)c2=O)c1NC(=O)c1ccc(Cl)c(Cl)c1 [2-59]
[1]; 63 g ai/ha
  Pre-emerge Herbicidal Activity, phytotoxicity rating (0-100), AMARE: 100
[1]; 250 g ai/ha
  Pre-emerge Herbicidal Activity, phytotoxicity rating (0-100), AMARE: 100
[2]; 63 g ai/ha
  Pre-emerge Herbicidal Activity, phytotoxicity rating (0-100), ABUTH: 100
[2]; 250 g ai/ha
  Pre-emerge Herbicidal Activity, phytotoxicity rating (0-100), ABUTH: 100
[3]; 63 g ai/ha
  Pre-emerge Herbicidal Activity, phytotoxicity rating (0-100), AMBEL: 50
[3]; 250 g ai/ha
  Pre-emerge Herbicidal Activity, phytotoxicity rating (0-100), AMBEL: 90
[4]; 63 g ai/ha
  Pre-emerge Herbicidal Activity, phytotoxicity rating (0-100), SORHA: 40
[4]; 250 g ai/ha
  Pre-emerge Herbicidal Activity, phytotoxicity rating (0-100), SORHA: 90
[5]; 63 g ai/ha
  Pre-emerge Herbicidal Activity, phytotoxicity rating (0-100), IPOHE: 20
[5]; 250 g ai/ha
  Pre-emerge Herbicidal Activity, phytotoxicity rating (0-100), IPOHE: 100
[6]; 63 g ai/ha
  Pre-emerge Herbicidal Activity, phytotoxicity rating (0-100), SETVI: 100
[6]; 250 g ai/ha
  Pre-emerge Herbicidal Activity, phytotoxicity rating (0-100), SETVI: 100
[7]; 63 g ai/ha
  Pre-emerge Herbicidal Activity, phytotoxicity rating (0-100), DIGSA: 70
[7]; 250 g ai/ha
  Pre-emerge Herbicidal Activity, phytotoxicity rating (0-100), DIGSA: 100
[8]; 63 g ai/ha
  Pre-emerge Herbicidal Activity, phytotoxicity rating (0-100), CASOB: 30
[8]; 250 g ai/ha
  Pre-emerge Herbicidal Activity, phytotoxicity rating (0-100), CASOB: 100
[9]; 63 g ai/ha
  Pre-emerge Herbicidal Activity, phytotoxicity rating (0-100), ECHCG: 40
[9]; 250 g ai/ha
  Pre-emerge Herbicidal Activity, phytotoxicity rating (0-100), ECHCG: 9
[10]; 63 g ai/ha
  Pre-emerge Herbicidal Activity, phytotoxicity rating (0-100), CHEAL: 100
[10]; 250 g ai/ha
  Pre-emerge Herbicidal Activity, phytotoxicity rating (0-100), CHEAL: 100
[11]; 63 g ai/ha
  phytotoxicity rating ABUTH: 100
[11]; 250 g ai/ha
  phytotoxicity rating ABUTH: 100
[12]; 63 g ai/ha
  phytotoxicity rating AMBEL: 70
[12]; 250 g ai/ha
  phytotoxicity rating AMBEL: 100
[13]; 63 g ai/ha
  phytotoxicity rating SORHA: 30
[13]; 250 g ai/ha
  phytotoxicity rating SORHA: 65
[14]; 63 g ai/ha
  phytotoxicity rating IPOHE: 100
[14]; 250 g ai/ha
  phytotoxicity rating IPOHE: 100
[15]; 63 g ai/ha
  phytotoxicity rating SETVI: 20
[15]; 250 g ai/ha
  phytotoxicity rating SETVI: 20
[16]; 63 g ai/ha
  phytotoxicity rating DIGSA: 0
[16]; 250 g ai/ha
  phytotoxicity rating DIGSA: 30
[17]; 63 g ai/ha
  phytotoxicity rating AMARE: 100
[17]; 250 g ai/ha
  phytotoxicity rating AMARE: 100
[18]; 63 g ai/ha
  phytotoxicity rating CASOB: 90
[18]; 250 g ai/ha
  phytotoxicity rating CASOB: 100
[19]; 63 g ai/ha
  phytotoxicity rating ECHCG: 0
[19]; 250 g ai/ha
  phytotoxicity rating ECHCG: 30
[20]; 63 g ai/ha
  phytotoxicity rating CHEAL: 100
[20]; 250 g ai/ha
  phytotoxicity rating CHEAL: 100
[21]; 63 g ai/ha
  phytotoxicity rating CORN: 70
[21]; 250 g ai/ha
  phytotoxicity rating CORN: 80
[22]; 63 g ai/ha
  phytotoxicity rating RICE: 70
[22]; 250 g ai/ha
  phytotoxicity rating RICE: 80
[23]; 63 g ai/ha
  Pre-emerge phytotoxicity rating (0-100), crop damage, CORN: 10
[23]; 250 g ai/ha
  Pre-emerge phytotoxicity rating (0-100), crop damage, CORN: 70
[24]; 63 g ai/ha
  Pre-emerge phytotoxicity rating (0-100), crop damage, RICE: 25
[24]; 250 g ai/ha
  Pre-emerge phytotoxicity rating (0-100), crop damage, RICE: 75
